# Reference: patent US10633407B2, “14-membered ketolides and methods of their preparation and use” (President and Fellows of Harvard College, priority 2014, dated 2020)
# Like-named read-outs stand apart in the source and are kept apart here.
# How the values were obtained:
# Experiment in all cases: CLSI broth dilution MIC determination
# Type in all cases: cell-based
# E. coli ATCC 25922 = test system: E. coli ATCC 25922
# Summary of the method: (§1)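 The lowest inhibitory concentration was found by broth dilution done to CLSI standards. Resistance genotypes on the panel can be constitutive or inducible, and azithromycin and solithromycin accompany many tests as reference macrolides.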
# E. coli CTX-M-14 = test system: E. coli CTX-M-14
# Summary of the method: as §1
# E. coli NDM-1 = test system: E. coli NDM-1
# Summary of the method: as §1
# E. coli TEM-1 = test system: E. coli TEM-1
# Summary of the method: as §1
# H. influenzae ATCC49247 = test system: H. influenzae ATCC49247
# Summary of the method: as §1
# K. pneumoniae TEM-10 = test system: K. pneumoniae TEM-10
# S. aureus ATCC 29213 = test system: S. aureus ATCC 29213
# Summary of the method: as §1
# S. aureus MRSA: USA100 = test system: S. aureus MRSA: USA100
# Summary of the method: as §1
# S. aureus MRSA: USA300 = test system: S. aureus MRSA: USA300
# Summary of the method: as §1
# S. aureus USA600, GISA = test system: S. aureus USA600, GISA
# Summary of the method: as §1
# S. aureus erm A genotype = test system: S. aureus erm A genotype
# Summary of the method: as §1
# S. pneumoniae ATCC 49619 = test system: S. pneumoniae ATCC 49619
# Summary of the method: as §1
# [1] = test system: S. pneumoniae erm B + mef A genotype
# Summary of the method: as §1
# [2] = test system: S. pneumoniae erm B + tet(M,O) genotype; details: Streptococcus pneumoniae
# Summary of the method: as §1
# [3] = test system: S. pneumoniae mef A genotype (first strain so labelled)
# Summary of the method: as §1
# [4] = test system: S. pneumoniae mef A genotype (second strain so labelled)
# Summary of the method: as §1
# S. pyogenes ATCC 19615 = test system: S. pyogenes ATCC 19615
# [5] = test system: S. pyogenes Macrolide-resistant
# E. faecalis ATCC 29212 = test system: E. faecalis ATCC 29212
# [6] = test system: E. faecalis Vancomycin-resistant
# A. baumannii ATCC 19606 = test system: A. baumannii ATCC 19606
# [7] = test system: A. baumannii imipenem-resistant
# [8] = test system: A. baumannii chromosomal class C
# A. baumannii IMP-4 = test system: A. baumannii IMP-4
# K. pneumoniae ATCC 10031 = test system: K. pneumoniae ATCC 10031
# K. pneumoniae KPC-2 = test system: K. pneumoniae KPC-2
# K. pneumoniae SHV-12 = test system: K. pneumoniae SHV-12
# P. aeruginosa ATCC 27853 = test system: P. aeruginosa ATCC 27853
# [9] = test system: P. aeruginosa HPA101-1477
# [10] = test system: E. coli MP-532 clinical-cErmB; details: Escherichia coli
# Summary of the method: as §1
# E. coli MP-541 clinical = details: Escherichia coli, MP541CLINICAL, read-out: MIC
# Summary of the method: as §1
# [11] = test system: E. coli MP-9 ATCC25922:tolC; details: Escherichia coli, ATCC25922
# Summary of the method: as §1
# [12] = test system: S. aureus (MRSA) MP-513 ST-228 cErm (Clinical-cErm); details: Staphylococcus aureus, read-out: MIC
# Summary of the method: as §1
# [13] = test system: S. aureus MP-17 ATCCBAA-977 (BAA 977 iErm); details: Staphylococcus aureus; S. aureus MP-17, ATCCBAA-977, iErm; read-out: MIC
# Summary of the method: as §1
# P. aeruginosa MP-7 PAO1 = details: Pseudomonas aeruginosa, read-out: MIC
# [14] = test system: P. aeruginosa MP-8 PAO1:mex (mex-oprM-deletion); details: Pseudomonas aeruginosa, PAO1
# [15] = test system: K. pneumoniae MP-548 clinical; details: Klebsiella pneumoniae, MP548CLINICAL, read-out: MIC
# [16] = test system: K. pneumoniae MP-546 Clinical-MDR; details: Klebsiella pneumoniae, read-out: MIC
# [17] = test system: A. baumannii MP-577 Clinical-AZT low; details: Acinetobacter baumannii, read-out: MIC
# [18] = test system: A. baumannii MP-576 Clinical-MDR; details: Acinetobacter baumannii, read-out: MIC
# [19] = Escherichia coli, ATCC25922, E. coli ATCC 25922 (MP-4), read-out: MIC
# [20] = Staphylococcus aureus, ATCC29213, S. aureus ATCC 29213 (MP-12), read-out: MIC
# [21] = Staphylococcus aureus, S. aureus MRSA: USA100 (MP-618 UNT-096), read-out: MIC
# [22] = Staphylococcus aureus, S. aureus MRSA: USA300 (MP-549, msr(a)), read-out: MIC
# [23] = Staphylococcus aureus, S. aureus USA600, GISA (MP-619 UNT-120), read-out: MIC
# [24] = Staphylococcus aureus, S. aureus erm A genotype (MP-620 UNT-146), read-out: MIC
# [25] = Streptococcus pneumoniae, ATCC49619, S. pneumoniae ATCC 49619 (MP-21), read-out: MIC
# [26] = Streptococcus pneumoniae, first strain (MP-626 UNT-038)
# [27] = Streptococcus pneumoniae, second strain (MP-627 UNT-039), read-out: MIC
# [28] = Streptococcus pyogenes, ATCC19615, S. pyogenes ATCC 19615 (MP-19), read-out: MIC
# [29] = Streptococcus pyogenes, S. pyogenes Macrolide-resistant (MP-625 UNT-014), read-out: MIC
# [30] = Enterococcus faecalis, ATCC29212, E. faecalis ATCC 29212 (MP-24), read-out: MIC
# [31] = Enterococcus faecalis, E. faecalis Vancomycin-resistant (UNT-039), read-out: MIC
# [32] = Acinetobacter baumannii, ATCC19606, A. baumannii ATCC 19606 (MP-15), read-out: MIC
# [33] = Acinetobacter baumannii, read-out: MIC
# [34] = Klebsiella pneumoniae, ATCC10031, K. pneumoniae ATCC 10031 (MP-14), read-out: MIC
# [35] = Pseudomonas aeruginosa, ATCC27853, P. aeruginosa ATCC 27853 (MP-3), read-out: MIC
smiles,measurement,setting,value
"CC[C@H]1OC(=O)[C@H](C)[C@@H](O[C@H]2C[C@@](C)(OC)[C@@H](O)[C@H](C)O2)[C@H](C)[C@@H](O[C@@H]2O[C@H](C)C[C@H](N(C)C)[C@H]2O)[C@](C)(O)C[C@@H](C)CN(C)[C@H](C)[C@@H](O)[C@]1(C)O [Azithro, azithromycin, reference compound]",MIC,"E. coli ATCC 25922; E. coli ATCC 25922, Gram-negative",4 µg/mL
same,MIC,E. coli ATCC 25922; [19],4 µg/mL
same,MIC,"E. coli CTX-M-14; Escherichia coli, CTXM14, read-out: MIC",> 32 µg/mL
same,MIC,E. coli CTX-M-14; Gram-negative,> 32 µg/mL
same,MIC,"E. coli NDM-1; Escherichia coli, NDM1, read-out: MIC",> 32 µg/mL
same,MIC,E. coli NDM-1; Gram-negative,> 32 µg/mL
same,MIC,"E. coli TEM-1; E. coli TEM-1, Gram-negative",1 µg/mL
same,MIC,"E. coli TEM-1; Escherichia coli, TEM1",1 µg/mL
same,MIC,H. influenzae ATCC49247; Gram-negative,0.5 µg/mL
same,MIC,"H. influenzae ATCC49247; Haemophilus influenzae, read-out: MIC",0.5 µg/mL
same,MIC,K. pneumoniae TEM-10; Gram-negative,8 µg/mL
same,MIC,"K. pneumoniae TEM-10; Klebsiella pneumoniae, TEM10, read-out: MIC",8 µg/mL
same,MIC,"S. aureus ATCC 29213; S. aureus ATCC 29213, Gram-positive",1 µg/mL
same,MIC,S. aureus ATCC 29213; [20],1 µg/mL
same,MIC,"S. aureus MRSA: USA100; S. aureus MRSA: USA100, Gram-positive",> 32 µg/mL
same,MIC,S. aureus MRSA: USA100; [21],> 32 µg/mL
same,MIC,"S. aureus MRSA: USA300; S. aureus MRSA: USA300, Gram-positive",32 µg/mL
same,MIC,S. aureus MRSA: USA300; [22],32 µg/mL
same,MIC,"S. aureus USA600, GISA; S. aureus USA600, GISA, Gram-positive",> 32 µg/mL
same,MIC,"S. aureus USA600, GISA; [23]",> 32 µg/mL
same,MIC,"S. aureus erm A genotype; S. aureus erm A genotype, Gram-positive",> 32 µg/mL
same,MIC,S. aureus erm A genotype; [24],> 32 µg/mL
same,MIC,"S. pneumoniae ATCC 49619; S. pneumoniae ATCC 49619, Gram-positive",< 0.0312 µg/mL
same,MIC,S. pneumoniae ATCC 49619; [25],< 0.0312 µg/mL
same,MIC,"[1]; S. pneumoniae erm B + mef A genotype, Gram-positive",> 32 µg/mL
same,MIC,[1]; Streptococcus pneumoniae,> 32 µg/mL
same,MIC,[2],< 0.0312 µg/mL
same,MIC,[3]; [26],0.25 µg/mL
same,MIC,"[3]; first of two rows so labelled, Gram-positive",0.25 µg/mL
same,MIC,[4]; Gram-positive,4 µg/mL
same,MIC,[4]; [27],4 µg/mL
same,MIC,"S. pyogenes ATCC 19615; S. pyogenes ATCC 19615, Gram-positive",< 0.0312 µg/mL
same,MIC,S. pyogenes ATCC 19615; [28],< 0.0312 µg/mL
same,MIC,"[5]; S. pyogenes Macrolide-resistant, Gram-positive",2 µg/mL
same,MIC,[5]; [29],2 µg/mL
same,MIC,"E. faecalis ATCC 29212; E. faecalis ATCC 29212, Gram-positive",4 µg/mL
same,MIC,E. faecalis ATCC 29212; [30],4 µg/mL
same,MIC,"[6]; E. faecalis Vancomycin-resistant, Gram-positive",> 32 µg/mL
same,MIC,[6]; [31],> 32 µg/mL
same,MIC,"A. baumannii ATCC 19606; A. baumannii ATCC 19606, Gram-negative",16 µg/mL
same,MIC,A. baumannii ATCC 19606; [32],16 µg/mL
same,MIC,[7]; [33],8 µg/mL
same,MIC,[7]; Gram-negative,8 µg/mL
same,MIC,[8]; [33],32 µg/mL
same,MIC,[8]; Gram-negative,32 µg/mL
same,MIC,"A. baumannii IMP-4; Acinetobacter baumannii, IMP4, read-out: MIC",> 32 µg/mL
same,MIC,A. baumannii IMP-4; Gram-negative,> 32 µg/mL
same,MIC,"K. pneumoniae ATCC 10031; K. pneumoniae ATCC 10031, Gram-negative",4 µg/mL
same,MIC,K. pneumoniae ATCC 10031; [34],4 µg/mL
same,MIC,K. pneumoniae KPC-2; Gram-negative,> 32 µg/mL
same,MIC,"K. pneumoniae KPC-2; Klebsiella pneumoniae, KPC2, read-out: MIC",> 32 µg/mL
same,MIC,K. pneumoniae SHV-12; Gram-negative,16 µg/mL
same,MIC,"K. pneumoniae SHV-12; Klebsiella pneumoniae, SHV12, read-out: MIC",16 µg/mL
same,MIC,"P. aeruginosa ATCC 27853; P. aeruginosa ATCC 27853, Gram-negative",> 32 µg/mL
same,MIC,P. aeruginosa ATCC 27853; [35],> 32 µg/mL
same,MIC,[9]; Gram-negative,> 32 µg/mL
same,MIC,"[9]; Pseudomonas aeruginosa, HPA1011477, read-out: MIC",> 32 µg/mL
CC[C@H]1OC(=O)[C@H](C)C(=O)[C@H](C)[C@@H](O[C@@H]2OC(C)CC(N(C)C)C2O)[C@](C)(OC)C[C@@H](C)C(=O)[C@H](C)[C@H]2N(CC#CCn3cc(-c4cccc(N)n4)nn3)C(=O)O[C@]12C (stereo partly drawn) [FSM-100551],MIC,E. coli ATCC 25922; [19],8 µg/mL
same,MIC,[10],> 64 µg/mL
same,MIC,E. coli MP-541 clinical,16 µg/mL
same,MIC,[11],2 µg/mL
same,MIC,[12],> 64 µg/mL
same,MIC,S. aureus ATCC 29213; [20],0.06 µg/mL
same,MIC,[13],0.06 µg/mL
same,MIC,S. aureus MRSA: USA100; [21],> 64 µg/mL
same,MIC,S. aureus MRSA: USA300; [22],0.125 µg/mL
same,MIC,"S. aureus USA600, GISA; [23]",64 µg/mL
same,MIC,S. aureus erm A genotype; [24],> 64 µg/mL
same,MIC,S. pneumoniae ATCC 49619; [25],< 0.03 µg/mL
same,MIC,[3]; [26],< 0.03 µg/mL
same,MIC,[4]; [27],< 0.03 µg/mL
same,MIC,S. pyogenes ATCC 19615; [28],< 0.03 µg/mL
same,MIC,[5]; [29],0.06 µg/mL
same,MIC,E. faecalis ATCC 29212; [30],< 0.03 µg/mL
same,MIC,[6]; [31],4 µg/mL
same,MIC,A. baumannii ATCC 19606; [32],4 µg/mL
same,MIC,K. pneumoniae ATCC 10031; [34],8 µg/mL
same,MIC,P. aeruginosa ATCC 27853; [35],16 µg/mL
same,MIC,P. aeruginosa MP-7 PAO1,32 µg/mL
same,MIC,[14],4 µg/mL
same,MIC,[15],32 µg/mL
same,MIC,[16],> 64 µg/mL
same,MIC,[17],16 µg/mL
same,MIC,[18],> 64 µg/mL
